Five compounds from patent publication US12371464B2, “Polypeptides and uses thereof” (MEDIMMUNE LIMITED, priority 2020, dated 2025) can be followed below.

SMILES strings stand for the structures. Numbered stars: 1 amine (or outer) side, 2 acyl side, 3 side chain; on linkers, the order of the positions; unused ones are H or OH. Bridge positions count the residues as written; N and C are the ends. Square brackets hold non-standard residues; d marks the D form. Side chains are listed from the residue outwards. Peptide text beside a SMILES is read from it. * marks the point of attachment. C18 diacid = O=C(O)CCCCCCCCCCCCCCCCC(=O)*; γGlu = O=C(O)[C@H](CCC(=O)[*:2])N[*:1]; αMeF = C[C@](N)(Cc1ccccc1)C(=O)O; Dab = NCC[C@H](N)C(=O)O; Aib = CC(C)(N)C(=O)O Bounds are passed on as bounds.

The nature of the series: Thioflavin T fibrillation assay. Format: physicochemical. Particulars: 1 mg/mL in 25 mM sodium acetate buffer pH 4.0, 37° C., 6 days, orbital shaking; >144 h = no increase. A digest of the protocol:
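Peptides at 1 mg/mL in 25 mM sodium acetate pH 4.0 were mixed with ThT (0.25 mM stock) and held 6 days at 37 °C with intermittent orbital shaking at 500–750 rpm. Fluorescence (ex 444/em 480 nm) was read every 30 min, with buffer baseline correction and 5 replicates. Value: mean time to a detectable fluorescence increase.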
As for `CC[C@H](C)[C@H](NC(=O)[C@@H]1CCCN1C(=O)CNC(=O)[C@](C)(Cc1ccccc1)NC(=O)[C@H](CC(N)=O)NC(=O)[C@H](CC(N)=O)NC(=O)[C@H](CO)NC(=O)[C@H](CO)NC(=O)[C@H](Cc1c[nH]cn1)NC(=O)[C@@H](NC(=O)[C@H](CC(C)C)NC(=O)[C@H](Cc1ccccc1)NC(=O)[C@H](CC(N)=O)NC(=O)[C@H](C)NC(=O)[C@H](CC(C)C)NC(=O)[C@H](CCCNC(=N)N)NC(=O)[C@H](CCC(N)=O)NC(=O)[C@@H](NC(=O)[C@H](C)NC(=O)[C@@H]1CSSC[C@H](NC(=O)[C@@H](N)CCCCNC(=O)CC[C@H](NC(=O)CCCCCCCCCCCCCCCCC(=O)O)C(=O)O)C(=O)N[C@@H](CC(N)=O)C(=O)N[C@@H]([C@@H](C)O)C(=O)N[C@@H](C)C(=O)N[C@@H]([C@@H](C)O)C(=O)N1)[C@@H](C)O)C(C)C)C(=O)N[C@@H](CC(C)C)C(=O)N1CCC[C@H]1C(=O)N1CCC[C@H]1C(=O)N[C@H](C(=O)N[C@@H](CCCNC(=N)N)C(=O)N[C@H](C(=O)NCC(=O)N[C@@H](CO)C(=O)N[C@@H](CC(N)=O)C(=O)N[C@H](C(=O)N[C@@H](Cc1ccc(O)cc1)C(N)=O)[C@@H](C)O)C(C)C)[C@@H](C)O` [Peptide 25, K(γE-C18diacid)[CNTATC]ATQRLANFLVHSSNN(αMePhe)GPILPPTRVGSNTY-amide] (H-K([γGlu-C18 diacid])CNTATCATQRLANFLVHSSNN[αMeF]GPILPPTRVGSNTY-NH2; disulfide 2-7; N-terminus assumed), the “Time taken to detect increase in fluorescence intensity” value is recorded as more than 144 h. The value for `CC[C@H](C)[C@H](NC(=O)[C@@H]1CCCN1C(=O)CNC(=O)[C@H](Cc1ccccc1)NC(=O)[C@H](CC(N)=O)NC(=O)[C@H](CCN)NC(=O)[C@H](CO)NC(=O)[C@H](CO)NC(=O)[C@H](Cc1c[nH]cn1)NC(=O)[C@@H](NC(=O)[C@H](CC(C)C)NC(=O)[C@H](Cc1ccccc1)NC(=O)[C@H](CC(N)=O)NC(=O)[C@H](C)NC(=O)[C@H](CC(C)C)NC(=O)[C@H](CCCNC(=N)N)NC(=O)[C@H](CCC(N)=O)NC(=O)[C@@H](NC(=O)[C@H](C)NC(=O)[C@@H]1CSSC[C@H](NC(=O)[C@H](CCCCN)NC(=O)[C@@H](N)CCCCNC(=O)CC[C@H](NC(=O)CCCCCCCCCCCCCCCCC(=O)O)C(=O)O)C(=O)N[C@@H](CC(N)=O)C(=O)N[C@@H]([C@@H](C)O)C(=O)N[C@@H](C)C(=O)N[C@@H]([C@@H](C)O)C(=O)N1)[C@@H](C)O)C(C)C)C(=O)N[C@@H](CC(C)C)C(=O)N1CCC[C@H]1C(=O)N1CCC[C@H]1C(=O)N[C@H](C(=O)N[C@@H](CCC(=O)O)C(=O)N[C@H](C(=O)NCC(=O)N[C@@H](CO)C(=O)N[C@@H](CC(N)=O)C(=O)N[C@H](C(=O)N[C@@H](Cc1ccc(O)cc1)C(N)=O)[C@@H](C)O)C(C)C)[C@@H](C)O` [Peptide 28, K(γE-C18diacid)K[CNTATC]ATQRLANFLVHSS(Dab)NFGPILPPTEVGSNTY-amide] (H-K([γGlu-C18 diacid])KCNTATCATQRLANFLVHSS[Dab]NFGPILPPTEVGSNTY-NH2; disulfide 3-8; N-terminus assumed) was 45 h; that for `CC[C@H](C)[C@H](NC(=O)[C@@H]1CCCN1C(=O)CNC(=O)[C@H](Cc1ccccc1)NC(=O)[C@H](CC(N)=O)NC(=O)[C@H](CC(N)=O)NC(=O)[C@H](CO)NC(=O)[C@H](CO)NC(=O)[C@H](Cc1c[nH]cn1)NC(=O)[C@@H](NC(=O)[C@H](CC(C)C)NC(=O)[C@H](Cc1ccccc1)NC(=O)[C@H](CCN)NC(=O)[C@H](C)NC(=O)[C@H](CC(C)C)NC(=O)[C@H](CCCNC(=N)N)NC(=O)[C@H](CCC(N)=O)NC(=O)[C@@H](NC(=O)[C@H](C)NC(=O)[C@@H]1CSSC[C@H](NC(=O)[C@H](CCCCN)NC(=O)[C@@H](N)CCCCNC(=O)CC[C@H](NC(=O)CCCCCCCCCCCCCCCCC(=O)O)C(=O)O)C(=O)N[C@@H](CC(N)=O)C(=O)N[C@@H]([C@@H](C)O)C(=O)N[C@@H](C)C(=O)N[C@@H]([C@@H](C)O)C(=O)N1)[C@@H](C)O)C(C)C)C(=O)N[C@@H](CC(C)C)C(=O)N1CCC[C@H]1C(=O)N1CCC[C@H]1C(=O)N[C@H](C(=O)N[C@@H](CC(N)=O)C(=O)N[C@H](C(=O)NCC(=O)N[C@@H](CO)C(=O)N[C@@H](CC(N)=O)C(=O)N[C@H](C(=O)N[C@@H](Cc1ccc(O)cc1)C(N)=O)[C@@H](C)O)C(C)C)[C@@H](C)O` [Peptide 33] (H-K([γGlu-C18 diacid])KCNTATCATQRLA[Dab]FLVHSSNNFGPILPPTNVGSNTY-NH2; disulfide 3-8; N-terminus assumed) was more than 144 h. The value for `CC[C@H](C)[C@H](NC(=O)[C@@H]1CCCN1C(=O)CNC(=O)[C@H](Cc1ccccc1)NC(=O)[C@H](CC(N)=O)NC(=O)C(C)(C)NC(=O)[C@H](CO)NC(=O)[C@H](CO)NC(=O)[C@H](Cc1c[nH]cn1)NC(=O)[C@@H](NC(=O)[C@H](CC(C)C)NC(=O)[C@H](Cc1ccccc1)NC(=O)[C@H](CC(N)=O)NC(=O)[C@H](C)NC(=O)[C@H](CC(C)C)NC(=O)[C@H](CCCNC(=N)N)NC(=O)[C@H](CCC(N)=O)NC(=O)[C@@H](NC(=O)[C@H](C)NC(=O)[C@@H]1CSSC[C@H](NC(=O)[C@H](CCCCN)NC(=O)[C@@H](N)CCCCNC(=O)CC[C@H](NC(=O)CCCCCCCCCCCCCCCCC(=O)O)C(=O)O)C(=O)N[C@@H](CC(N)=O)C(=O)N[C@@H]([C@@H](C)O)C(=O)N[C@@H](C)C(=O)N[C@@H]([C@@H](C)O)C(=O)N1)[C@@H](C)O)C(C)C)C(=O)N[C@@H](CC(C)C)C(=O)N1CCC[C@H]1C(=O)N1CCC[C@H]1C(=O)N[C@H](C(=O)N[C@@H](Cc1c[nH]cn1)C(=O)N[C@H](C(=O)NCC(=O)N[C@@H](CO)C(=O)N[C@@H](CC(N)=O)C(=O)N[C@H](C(=O)N[C@@H](Cc1ccc(O)cc1)C(N)=O)[C@@H](C)O)C(C)C)[C@@H](C)O` [Peptide 40, K(γE-C18diacid)K[CNTATC]ATQRLANFLVHSS(Aib)NFGPILPPTHVGSNTY-amide] (H-K([γGlu-C18 diacid])KCNTATCATQRLANFLVHSS[Aib]NFGPILPPTHVGSNTY-NH2; disulfide 3-8; N-terminus assumed) was more than 144 h.

As for `CC[C@H](C)[C@H](NC(=O)[C@@H]1CCCN1C(=O)CNC(=O)[C@H](Cc1ccccc1)NC(=O)[C@H](CC(N)=O)NC(=O)C(C)(C)NC(=O)[C@H](CO)NC(=O)[C@H](CO)NC(=O)[C@H](Cc1c[nH]cn1)NC(=O)[C@H](CCCNC(=N)N)NC(=O)[C@H](CC(C)C)NC(=O)[C@H](Cc1ccccc1)NC(=O)[C@H](CC(N)=O)NC(=O)[C@H](C)NC(=O)[C@H](CC(C)C)NC(=O)[C@H](CCCNC(=N)N)NC(=O)[C@H](CCC(N)=O)NC(=O)[C@@H](NC(=O)[C@H](C)NC(=O)[C@@H]1CSSC[C@H](NC(=O)[C@@H](N)CCCCNC(=O)CC[C@H](NC(=O)CCCCCCCCCCCCCCCCC(=O)O)C(=O)O)C(=O)N[C@@H](CC(N)=O)C(=O)N[C@@H]([C@@H](C)O)C(=O)N[C@@H](C)C(=O)N[C@@H]([C@@H](C)O)C(=O)N1)[C@@H](C)O)C(=O)N[C@@H](CC(C)C)C(=O)N1CCC[C@H]1C(=O)N1CCC[C@H]1C(=O)N[C@H](C(=O)N[C@@H](CCC(=O)O)C(=O)N[C@H](C(=O)NCC(=O)N[C@@H](CO)C(=O)N[C@@H](CC(N)=O)C(=O)N[C@H](C(=O)N[C@@H](Cc1ccc(O)cc1)C(N)=O)[C@@H](C)O)C(C)C)[C@@H](C)O` [Peptide 44, K(γE-C18diacid)[CNTATC]ATQRLANFLRHSS(Aib)NFGPILPPTEVGSNTY-amide] (H-K([γGlu-C18 diacid])CNTATCATQRLANFLRHSS[Aib]NFGPILPPTEVGSNTY-NH2; disulfide 2-7; N-terminus assumed), the “Time taken to detect increase in fluorescence intensity” value was more than 144 h.
